# Earlier results as cited in PubChem BioAssay AID1259409 (Chemical Carcinogenesis Research Information System (CCRIS), 2018).
# Test system: rodent chemically induced tumor inhibition, incidence and multiplicity
# Assay: CCRIS tumor inhibitor studies
structure (smiles),measurement,setting,value
CC1=C(/C=C/C(C)=C/C=C/C(C)=C/C=C/C=C(C)/C=C/C=C(C)/C=C/C2=C(C)CCCC2(C)C)C(C)(C)CCC1,"tumour outcome (control, treated, inhibition, significance)","Carcinogen: 7,12-DIMETHYLBENZ[A]ANTHRACENE, 57-97-6, Dose [Inhibitor]: 0, 400 NMOL IN 200 µL ACETONE 2/WK BEGINNING 1 WK POST CARCINOGEN DOSE APPLIED SIMULTANEOUSLY WITH PROMOTER FOR 20 WK (S, Route [Inhibitor]: DERMAL, Species: MOUSE, Strain/Sex: ICR/?, Target Tissue: Type of Lesion: SKIN: PAPILLOMA, Dose [Carcinogen]: 100 UG ONCE, Promoter: 12-O-TETRADECANOYLPHORBOL-13-ACETATE, 16561-29-8","69%, 25%, 64%, not calculated"
same,"tumour outcome (control, treated, inhibition, significance)","Carcinogen: 7,12-DIMETHYLBENZ[A]ANTHRACENE, 57-97-6, Dose [Inhibitor]: 0, 1430 IU/KG IN 100 µL PEANUT OIL 5 D/WK BEGINNING 1 WK POST CARCINOGEN DOSE AND CONTINUING FOR DURATION OF STUDY (STUD, Route [Inhibitor]: GAVAGE, Species: MOUSE, Strain/Sex: HRA/SKH/FEMALE, Target Tissue: Type of Lesion: SKIN: CARCINOMA, Dose [Carcinogen]: 10 NMOL IN 50 µL ACETONE ONCE","7/25 (28%), 8/37 (22%), 21%, not calculated"
same,outcome,"Carcinogen: 7,12-DIMETHYLBENZ[A]ANTHRACENE, 57-97-6, Dose [Inhibitor]: 0, 1430 IU/KG IN 100 µL PEANUT OIL 5 D/WK BEGINNING 1 WK POST CARCINOGEN DOSE AND CONTINUING FOR DURATION OF STUDY (STUD, Route [Inhibitor]: GAVAGE, Species: MOUSE, Strain/Sex: HRA/SKH/FEMALE, Target Tissue: Type of Lesion: SKIN: PAPILLOMA, Dose [Carcinogen]: 10 NMOL IN 50 µL ACETONE ONCE","97%, 77%, 21%, not calculated at 20 wk; 68%, 52%, 24%, not calculated at 40 wk"
same,"tumour outcome (control, treated, inhibition, significance)","Carcinogen: 7,12-DIMETHYLBENZ[A]ANTHRACENE, 57-97-6, Dose [Inhibitor]: 140 UG (1.5 MG/KG BW) IN 0.4 ML MINERAL OIL 3/WK FOR 28 WK (STUDY DURATION: 28 WK), Route [Inhibitor]: ORAL, Species: HAMSTER, Strain/Sex: SYRIAN/MALE, Target Tissue: Type of Lesion: SKIN: CARCINOMA, Dose [Carcinogen]: 0.1% IN HEAVY MINERAL OIL APPLIED TO BUCCAL POUCH 3/WK FOR 28 WK, Promoter: NONE USED","20/20 (100%), 11/20 (55%), 45%, not calculated"
same,"tumour outcome (control, treated, inhibition, significance)","Carcinogen: 7,12-DIMETHYLBENZ[A]ANTHRACENE, 57-97-6, Dose [Inhibitor]: 250 MG/KG IN DIET BEGINNING 6 WK PRIOR TO CARCINOGEN DOSE AND CONTINUING FOR 21-22 WK POST CARCINOGEN DOSE (STUDY DURATI, Route [Inhibitor]: ORAL, Species: RAT, Strain/Sex: SPRAGUE-DAWLEY/MALE, Target Tissue: Type of Lesion: SALIVARY GLAND: TUMOR, Dose [Carcinogen]: 1 MG IN 20 µL OLIVE OIL INJECTED INTO SUBMANDIBULAR GLAND ONCE, Promoter: NONE USED","20/28 (71%), 20/30 (67%), 6%, not significant"
same,"tumour outcome (control, treated, inhibition, significance)","Carcinogen: BENZO[A]PYRENE, 50-32-8, Dose [Inhibitor]: 0, 0.5 G/G OF DIET FOR 6 WK (STUDY DURATION: 9 WK), Route [Inhibitor]: ORAL, Species: MOUSE, Strain/Sex: NIGP(S)/FEMALE, Target Tissue: Type of Lesion: LUNG: ADENOMA, Dose [Carcinogen]: 0.5 MG INJECTED IN THE SCAPULAR REGION OF NEWBORN MICE ONCE, Promoter: NONE USED","56%, 38%, 32%, not calculated"
same,"tumour outcome (control, treated, inhibition, significance)","Carcinogen: BENZO[A]PYRENE, 50-32-8, Dose [Inhibitor]: 0, 0.5 G/G OF DIET FOR 6 WK (STUDY DURATION: 9 WK), Route [Inhibitor]: ORAL, Species: MOUSE, Strain/Sex: NIGP(S)/MALE, Target Tissue: Type of Lesion: LUNG: ADENOMA, Dose [Carcinogen]: 0.5 MG INJECTED IN THE SCAPULAR REGION OF NEWBORN MICE ONCE, Promoter: NONE USED","37%, 38%, -3%, not calculated"
same,"tumour outcome (control, treated, inhibition, significance)","Carcinogen: BENZO[A]PYRENE, 50-32-8, Dose [Inhibitor]: 0, 4.7 MICROMOLAR/D IN 0.1 ML PEANUT OIL BEGINNING 2 WK PRIOR TO CARCINOGEN TREATMENT AND CONTINUING TO 2 WK POST CARCIN, Route [Inhibitor]: GAVAGE, Species: MOUSE, Strain/Sex: SWISS/FEMALE, Target Tissue: Type of Lesion: FORESTOMACH: TUMOR, Dose [Carcinogen]: 1 MG 2/WK IN 0.1 ML PEANUT OIL FOR 4 WK, Promoter: NONE USED","20/20 (100%), 3/20 (15%), 85%, p<0.001"
same,"tumour outcome (control, treated, inhibition, significance)","Carcinogen: BENZO[A]PYRENE, 50-32-8, Dose [Inhibitor]: 2.5 MG/D IN DIET FOLLOWED 1 MO LATER BY 25 MG/0.250 KG BW BY GAVAGE 2/WK 2 HR PRIOR TO CARCINOGEN DOSE (STUDY DURATION:, Route [Inhibitor]: ORAL, GAVAGE, Species: MOUSE, Strain/Sex: SWISS/FEMALE, Target Tissue: Type of Lesion: SKIN: PAPILLOMA, SQUAMOUS EPITHELIOMA, Dose [Carcinogen]: 100 UG IN ACETONE 2/WK BEGINNING 1 MO AFTER AGENT DOSE AND CONTINUING FOR DURATION OF STUDY, Promoter: NONE USED","@65%, @55%, 15%, p<0.05"
same,"tumour outcome (control, treated, inhibition, significance)","Carcinogen: BENZO[A]PYRENE, 50-32-8, UV IRRADIATION, Carcinogen: BENZO[A]PYRENE, 50-32-8, UV IRRADIATION, Dose [Inhibitor]: 2.5 MG/D IN DIET FOLLOWED 1 MO LATER BY 25 MG/0.250 KG BW BY GAVAGE 2/WK GIVEN 2 HR PRIOR TO CARCINOGEN DOSE (STUDY DURA, Route [Inhibitor]: ORAL, GAVAGE, Species: MOUSE, Strain/Sex: SWISS/FEMALE, Target Tissue: Type of Lesion: SKIN: PAPILLOMA, SQUAMOUS EPITHELIOMA, Dose [Carcinogen]: 100 UG IN ACETONE 2/WK BEGINNING 1 MO AFTER AGENT DOSE AND CONTINUING FOR DURATION OF STUDY PLUS UV IRRADIATION (5890 ER, Promoter: NONE USED","@93%, @40%, @57%, not calculated"
same,"tumour outcome (control, treated, inhibition, significance)","Carcinogen: DIESEL EXHAUST PARTICLES, Dose [Inhibitor]: 0, 0.02% IN BASAL DIET FOR DURATION FO STUDY (STUDY DURATION: 12 MO), Route [Inhibitor]: ORAL, Species: MOUSE, Strain/Sex: ICR/MALE, Target Tissue: Type of Lesion: LYMPHATIC SYSTEM: LYMPHOMA, Dose [Carcinogen]: 0.2 MG 1/WK FOR 10 WK, Promoter: NONE USED","6/29 (21%), 5/30 (17%), 20%, not calculated"
same,"tumour outcome (control, treated, inhibition, significance)","Carcinogen: DIESEL EXHAUST PARTICLES, Dose [Inhibitor]: 0, 0.02% IN BASAL DIET FOR DURATION OF STUDY (STUDY DURATION: 12 MO), Route [Inhibitor]: ORAL, Species: MOUSE, Strain/Sex: ICR/ MALE, Target Tissue: Type of Lesion: LYMPHATIC SYSTEM: LYMPHOMA, Dose [Carcinogen]: 0.1 MG 1/WK FOR 10 WK, Promoter: NONE USED","3/29 (10%), 2/30 (7%), 30%, not calculated"
same,"tumour outcome (control, treated, inhibition, significance)","Carcinogen: DIESEL EXHAUST PARTICLES, Dose [Inhibitor]: 0, 0.02% IN BASAL DIET FOR DURATION OF STUDY (STUDY DURATION: 12 MO), Route [Inhibitor]: ORAL, Species: MOUSE, Strain/Sex: ICR/MALE, Target Tissue: Type of Lesion: LUNG: TUMOR, Dose [Carcinogen]: 0.05 MG 1/WK FOR 10 WK, Promoter: NONE USED","9/30 (30%), 6/30 (20%), 33%, not calculated"
same,"tumour outcome (control, treated, inhibition, significance)","Carcinogen: DIESEL EXHAUST PARTICLES, Dose [Inhibitor]: 0, 0.02% IN BASAL DIET FOR DURATION OF STUDY (STUDY DURATION: 12 MO), Route [Inhibitor]: ORAL, Species: MOUSE, Strain/Sex: ICR/MALE, Target Tissue: Type of Lesion: LUNG: TUMOR, Dose [Carcinogen]: 0.1 MG 1/WK FOR 10 WK, Promoter: NONE USED","9/29 (31%), 10/30 (33%), -6%, not calculated"
same,"tumour outcome (control, treated, inhibition, significance)","Carcinogen: DIESEL EXHAUST PARTICLES, Dose [Inhibitor]: 0, 0.02% IN BASAL DIET FOR DURATION OF STUDY (STUDY DURATION: 12 MO), Route [Inhibitor]: ORAL, Species: MOUSE, Strain/Sex: ICR/MALE, Target Tissue: Type of Lesion: LUNG:TUMOR, Dose [Carcinogen]: 0.2 MG 1/WK FOR 10 WK, Promoter: NONE USED","7/29 (24%), 8/30 (27%), -13%, not calculated"
same,"tumour outcome (control, treated, inhibition, significance)","Carcinogen: DIESEL EXHAUST PARTICLES, Dose [Inhibitor]: 0, 0.02% IN BASAL DIET FOR DURATION OF STUDY (STUDY DURATION: 12 MO), Route [Inhibitor]: ORAL, Species: MOUSE, Strain/Sex: ICR/MALE, Target Tissue: Type of Lesion: LYMPHATIC SYSTEM: LYMPHOMA, Dose [Carcinogen]: 0.05 MG 1/WK FOR 10 WK, Promoter: NONE USED","3/30 (10%), 4/30 (13%), -30%, not calculated"
same,"tumour outcome (control, treated, inhibition, significance)","Carcinogen: DIESEL EXHAUST PARTICLES, Dose [Inhibitor]: 0, 0.02% IN HIGH FAT DIET FOR DURATION OF STUDY (STUDY DRUATION : 12 MO), Route [Inhibitor]: ORAL, Species: MOUSE, Strain/Sex: ICR/MALE, Target Tissue: Type of Lesion: LYMPHATIC SYSTEM: LYMPHOMA, Dose [Carcinogen]: 0.05 MG 1/WK FOR 10 WK, Promoter: NONE USED","5/30 (17%), 5/30 (17%), 0%, not significant"
same,"tumour outcome (control, treated, inhibition, significance)","Carcinogen: DIESEL EXHAUST PARTICLES, Dose [Inhibitor]: 0, 0.02% IN HIGH FAT DIET FOR DURATION OF STUDY (STUDY DURATION: 12 MO), Route [Inhibitor]: ORAL, Species: MOUSE, Strain/Sex: ICR/MALE, Target Tissue: Type of Lesion: LUNG: TUMOR, Dose [Carcinogen]: 0.05 MG 1/WK FOR 10 WK, Promoter: NONE USED","12/30 (40%), 9/30 (30%), 25%, not calculated"
